According to DBAASP:
Converted amounts (≈) assume the structure as drawn. One block for each compound: values may come before it.

Experiments:
Experiment in all cases: ≥ marks a high value that may be exact or a test limit, other limits are often not marked, values filed in µg/mL are converted to µM
[1] = tested on: Klebsiella pneumoniae NCTC 13368
[2] = tested on: Escherichia coli NCTC 12923
[3] = tested on: Staphylococcus aureus USA 300
[4] = tested on: Pseudomonas aeruginosa PAO1
[5] = tested on: Candida albicans ATCC 90028
[6] = tested on: Staphylococcus aureus ATCC 9144
[7] = tested on: Acinetobacter baumannii ATCC 17978
[8] = tested on: Franconibacter helveticus DSM 18390
[9] = tested on: Bacillus subtilis DSM 347
[10] = tested on: Staphylococcus xylosus DSM 20287
[11] = tested on: Escherichia coli DSM 1116
[12] = tested on: Bacillus megaterium ATCC 10778
[13] = tested on: Pseudomonas aeruginosa NCIB 10421
[14] = tested on: Enterobacter cloacae beta-12
[15] = tested on: Staphylococcus aureus ATCC 29213
[16] = tested on: Serratia marcescens ATCC 4112
Escherichia coli SBS 363 = tested on: Escherichia coli SBS 363
Candida albicans MDM8 = tested on: Candida albicans MDM8
[17] = tested on: Candida tropicalis IOC 4560
Micrococcus luteus A270 = tested on: Micrococcus luteus A270
[18] = tested on: Bacillus subtilis ATCC 6633
[19] = tested on: Escherichia coli NBRC 3972
[20] = tested on: Staphylococcus epidermidis NBRC 12993
[21] = tested on: Candida viswanathii NBRC 10321
[22] = tested on: Aspergillus oryzae NBRC 100959
[23] = tested on: Micrococcus luteus NBRC 3333
[24] = tested on: Lacticaseibacillus rhamnosus 1.0911
[25] = tested on: Lacticaseibacillus rhamnosus 1.0385
Escherichia coli K99 = tested on: Escherichia coli K99
[26] = tested on: Staphylococcus aureus ATCC 25923
Escherichia coli UB1005 = tested on: Escherichia coli UB1005
[27] = tested on: Salmonella enterica subsp. enterica serovar Typhimurium C77-31
Escherichia coli K88 = tested on: Escherichia coli K88
[28] = tested on: Salmonella enterica subsp. enterica serovar Typhimurium ATCC 14028
[29] = tested on: Escherichia coli ATCC 25922
[30] = tested on: Salmonella enterica subsp. enterica serovar Pullorum C79-13
[31] = tested on: Staphylococcus aureus ATCC 43300
[32] = tested on: Lacticaseibacillus rhamnosus 1.0936
[33] = tested on: Lactiplantibacillus plantarum 8014
[34] = tested on: Lacticaseibacillus rhamnosus 7469
[35] = tested on: Pseudomonas aeruginosa ATCC 27853

SMILES: C[C@H](NC(=O)CNC(=O)[C@H](CCCCN)NC(=O)[C@@H](N)CS)C(=O)N[C@@H](Cc1ccccc1)C(=O)N[C@@H](CCCCN)C(=O)N[C@@H](CCC(N)=O)C(=O)N[C@H](C(=O)N[C@@H](CS)C(=O)N[C@@H](CCCCN)C(=O)N[C@@H](CS)C(=O)N[C@@H](Cc1ccc(O)cc1)C(N)=O)[C@@H](C)O [CKGAFKQTCKCY]
- MIC [1]: ≥ 92.8 µM
- MIC [2]: ≥ 92.8 µM
- MIC [3]: ≥ 92.8 µM
- MIC [4]: > 92.8 µM
- MIC [5]: 4.4 µM (≈ 6.07 µg/mL)
- MIC [6]: ≥ 92.8 µM
- MIC [7]: ≥ 92.8 µM

SMILES: CC[C@H](C)[C@H](N)C(=O)N[C@@H](C)C(=O)N[C@@H](CCCCN)C(=O)N[C@H](C(=O)N[C@@H](C)C(=O)NCC(=O)N[C@@H](CCCCN)C(=O)N[C@H](C(=O)N[C@@H](C)C(=O)N[C@@H](CCCCN)C(=O)N[C@H](C(=O)N[C@@H](C)C(=O)NCC(=O)N[C@@H](CCCCN)C(=O)N[C@H](C(=O)N[C@@H](C)C(=O)N[C@@H](CCCCN)C(=O)N[C@H](C(=O)N[C@@H](C)C(=O)NCC(=O)N[C@@H](CCCCN)C(=O)N[C@H](C(=O)N[C@@H](C)C(N)=O)[C@@H](C)CC)[C@@H](C)CC)[C@@H](C)CC)[C@@H](C)CC)[C@@H](C)CC)[C@@H](C)CC [IAKIAGKIAKIAGKIAKIAGKIA]
- MIC [8]: 1.26 µM (≈ 2.83 µg/mL)
- MIC [9]: 0.89 µM (≈ 2 µg/mL)
- MIC [10]: 0.89 µM (≈ 2 µg/mL)
- MIC [11]: 1.78 µM (≈ 4 µg/mL)

SMILES: CC[C@H](C)[C@H](N)C(=O)N[C@@H](C)C(=O)N[C@@H](CCCCN)C(=O)N[C@H](C(=O)N[C@@H](C)C(=O)NCC(=O)N[C@@H](CCCCN)C(=O)N[C@H](C(=O)N[C@@H](C)C(=O)N[C@@H](CCCCN)C(=O)N[C@H](C(=O)N[C@@H](C)C(=O)NCC(=O)N[C@@H](CCCCN)C(=O)N[C@H](C(=O)N[C@@H](C)C(N)=O)[C@@H](C)CC)[C@@H](C)CC)[C@@H](C)CC)[C@@H](C)CC [IAKIAGKIAKIAGKIA]
- MIC [8]: ≥ 116 µM
- MIC [9]: 28.9 µM (≈ 45.2 µg/mL)
- MIC [10]: ≥ 163 µM
- MIC [11]: ≥ 163 µM

SMILES: CC(C)C[C@H](NC(=O)[C@H](CC(C)C)NC(=O)[C@H](Cc1c[nH]c2ccccc12)NC(=O)[C@H](Cc1c[nH]c2ccccc12)NC(=O)[C@H](Cc1c[nH]c2ccccc12)NC(=O)[C@@H](N)CCCN=C(N)N)C(N)=O [RWWWLL]
- MIC [24]: ≥ 64 µM
- MIC [25]: ≥ 64 µM
- MIC (Escherichia coli K99): 16 µM (≈ 15.3 µg/mL)
- MIC [26]: 8 µM (≈ 7.67 µg/mL)
- MIC (Escherichia coli UB1005): 16 µM (≈ 15.3 µg/mL)
- MIC [27]: 16 µM (≈ 15.3 µg/mL)
- MIC (Escherichia coli K88): 16 µM (≈ 15.3 µg/mL)
- MIC [28]: 32 µM (≈ 30.7 µg/mL)
- MIC [29]: 16 µM (≈ 15.3 µg/mL)
- MIC [30]: ≥ 64 µM
- MIC [31]: 8 µM (≈ 7.67 µg/mL)
- MIC [32]: ≥ 64 µM
- MIC [33]: ≥ 64 µM
- MIC [34]: ≥ 64 µM
- MIC [35]: > 64 µM

The remaining lines, values ahead:

- MIC [12]: 0.78 µM (≈ 1.2 µg/mL)
- MIC [13]: 25 µM (≈ 38.4 µg/mL)
- MIC [14]: 12.5 µM (≈ 19.2 µg/mL)
- MIC [15]: 6.25 µM (≈ 9.61 µg/mL)
- MIC [16]: 0.78 µM (≈ 1.2 µg/mL)
- MIC (Escherichia coli SBS 363): 3.13 µM (≈ 4.81 µg/mL)
- MIC (Candida albicans MDM8): 3.13 µM (≈ 4.81 µg/mL)
- MIC [17]: 1.56 µM (≈ 2.4 µg/mL)
- MIC (Micrococcus luteus A270): 0.78 µM (≈ 1.2 µg/mL)
- MIC [18]: 0.78 µM (≈ 1.2 µg/mL)
SMILES: CC[C@H](C)[C@H](N)C(=O)N[C@@H](CC(C)C)C(=O)NCC(=O)N[C@@H](CCCCN)C(=O)N[C@@H](Cc1ccccc1)C(=O)N[C@@H](Cc1c[nH]c2ccccc12)C(=O)N[C@@H](CCC(=O)O)C(=O)NCC(=O)N[C@H](C(=O)N[C@@H](CCCCN)C(=O)N[C@@H](CO)C(=O)N[C@@H](CC(C)C)C(=O)N[C@@H](Cc1ccccc1)C(N)=O)[C@@H](C)CC [ILGKFWEGIKSLF]

- MIC [12]: 0.78 µM (≈ 1.22 µg/mL)
- MIC [13]: ≥ 50 µM
- MIC [14]: 12.5 µM (≈ 19.5 µg/mL)
- MIC [15]: 1.56 µM (≈ 2.43 µg/mL)
- MIC [16]: 0.36 µM (≈ 0.561 µg/mL)
- MIC (Escherichia coli SBS 363): 0.78 µM (≈ 1.22 µg/mL)
- MIC (Candida albicans MDM8): 3.13 µM (≈ 4.88 µg/mL)
- MIC [17]: 3.13 µM (≈ 4.88 µg/mL)
- MIC (Micrococcus luteus A270): 0.78 µM (≈ 1.22 µg/mL)
- MIC [18]: 0.78 µM (≈ 1.22 µg/mL)
SMILES: CC[C@H](C)[C@H](N)C(=O)N[C@@H](CC(C)C)C(=O)N[C@@H](CC(C)C)C(=O)N[C@@H](CCCCN)C(=O)N[C@H](C(=O)N[C@@H](Cc1c[nH]c2ccccc12)C(=O)N[C@@H](CCC(=O)O)C(=O)NCC(=O)N[C@H](C(=O)N[C@@H](CCCCN)C(=O)N[C@@H](CO)C(=O)N[C@@H](CC(C)C)C(=O)N[C@@H](Cc1ccccc1)C(N)=O)[C@@H](C)CC)[C@@H](C)CC [ILLKIWEGIKSLF]

- MIC [19]: ≥ 125 µM
- MIC [20]: 15.6 µM (≈ 25 µg/mL)
- MIC [21]: 15.6 µM (≈ 25 µg/mL)
- MIC [22]: 7.78 µM (≈ 12.5 µg/mL)
- MIC [23]: 15.6 µM (≈ 25 µg/mL)
SMILES: CC[C@H](C)[C@H](NC(=O)[C@H](CCCCN)NC(=O)[C@@H](N)CCCN=C(N)N)C(=O)N[C@@H](CCCCN)C(=O)N[C@@H](CCCN=C(N)N)C(=O)N[C@@H](Cc1ccc(O)cc1)C(=O)N[C@@H](CC(C)C)C(=O)N[C@@H](CCCN=C(N)N)C(=O)N[C@@H](CCCN=C(N)N)C(=O)N[C@@H](CCSC)C(=O)N[C@@H](Cc1c[nH]c2ccccc12)C(=O)O [RKIKRYLRRMW]
